Laboratory results published in article PMC2720045 (Proteins, 2009).
Entries after “also recorded” stand apart in the source; their conditions may differ. Read-outs that look alike come from different tables or passages of the source.

How the values were obtained:
[1] = molecular target: T1, PRD25N (HIV-1 protease D25N mutant) (Human immunodeficiency virus type 1, UniProt P03367, D525N, form not given); test: DSC thermal denaturation of PRD25N with inhibitors; type: binding; details: inhibitor 28 μM, pH 4.8-5.0; unliganded PRD25N 58.4
[2] = molecular target: T2, porcine pepsin (Sus scrofa, UniProt P00791); test: Kinetic inhibition of pepsin; type: biochemical; details: for Inhibition of pepsin under the screening conditions: 175 μM substrate, pH 3.0-3.2, 28 °C; for inhibition at 16 µM: pH 3, read-out: Inhibition of pepsin under the screening conditions
[3] = molecular target: PRD29N (HIV-1 protease D29N mutant) (Human immunodeficiency virus type 1, UniProt P03367, D529N, form not given); details: inhibitor 28 μM, pH 4.8-5.0; unliganded PRD29N 59.0
[4] = molecular target: T3, mature HIV-1 protease (PR) (Human immunodeficiency virus type 1, UniProt P03367); details: cited from earlier work; for Kd: read-out: KL at 25 °C PR (lit.), 25 °C; for Binding constant (Ka), PR / ΔH of binding, PR / −TΔS of binding, PR: ITC, pH 5
[5] = molecular target: T2, porcine pepsin; test: ITC titration of pepsin with inhibitors; type: binding; details: for binding constant (KL) from curve fitting of ITC data, pepsin / stoichiometry of binding to pepsin: 28 °C; for binding constant (KL) from curve fitting of ITC data, pepsin: 50 mM sodium formate pH 3; for stoichiometry of binding to pepsin: pH 3
[6] = molecular target: T2, porcine pepsin; test: DSC of pepsin with inhibitors; type: binding; details: DSC pH 3; […] (APV) or 2-fold (Ac-PEP) molar excess; unliganded pepsin Tm 74.2
[7] = system: P. falciparum; details: cited from earlier work
[8] = system: PRD25N (HIV-1 protease D25N mutant); test: DSC thermal denaturation of PRD25N with inhibitors; type: binding; details: DSC
[9] = molecular target: T3, mature HIV-1 protease (PR); details: cited from earlier work
[10] = molecular target: T1, PRD25N (HIV-1 protease D25N mutant); details: cited from earlier work
[11] = Tm with inhibitor minus Tm without, twofold molar excess

T2 sequence (P00791 60-385): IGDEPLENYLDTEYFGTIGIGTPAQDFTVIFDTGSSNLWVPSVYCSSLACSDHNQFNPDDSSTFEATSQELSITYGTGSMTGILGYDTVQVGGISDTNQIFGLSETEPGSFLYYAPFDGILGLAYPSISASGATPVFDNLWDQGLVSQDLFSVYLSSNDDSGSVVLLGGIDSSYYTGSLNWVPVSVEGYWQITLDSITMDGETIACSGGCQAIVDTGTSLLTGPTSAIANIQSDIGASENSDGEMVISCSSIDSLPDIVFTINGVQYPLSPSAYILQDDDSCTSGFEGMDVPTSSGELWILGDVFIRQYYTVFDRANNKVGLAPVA

## COC(=O)N[C@H](C(=O)N[C@@H](Cc1ccccc1)[C@@H](O)CN(Cc1ccc(-c2ccccn2)cc1)NC(=O)[C@@H](NC(=O)OC)C(C)(C)C)C(C)(C)C [ATV, Atazanavir]
[1]
  Tm PRD25N: 61.4 °C
[2]; 16 μM inhibitor
  Inhibition of pepsin under the screening conditions: undetected; also recorded: no detectable inhibition; also recorded: did not inhibit
[3]
  Tm PRD29N: 71.7 °C
[4]
  Kd: 0.035 nM

## CC(C)CN(C[C@@H](O)[C@H](Cc1ccccc1)NC(=O)O[C@H]1CCOC1)S(=O)(=O)c1ccc(N)cc1 [APV, Amprenavir]
[1]
  Tm PRD25N: 58.7 °C
[2]
  Ki: 300 nM
  inhibition at 16 µM: 75 to 95%
[5]
  Kd: 180 nM
  binding constant (KL) from curve fitting of ITC data, pepsin: (5.5 ± 0.5) × 10^6 M
[5]; ITC
  stoichiometry of binding to pepsin: 0.97 ± 0.004
[5]; ITC, pH 3, 28 °C
  Binding constant (Ka), pepsin: (5.45 ± 0.5) × 10^6 M^−1
  ΔH of binding, pepsin: -4.2 ± 0.3 kcal/mol
  −TΔS of binding, pepsin: -5.1 kcal/mol
[6]
  ΔTm pepsin: 2.7 °C
[3]
  Tm PRD29N: 67.5 °C
[4]
  Binding constant (Ka), PR: (5.0 ± 0.3) × 10^9 M^−1
  ΔH of binding, PR: -6.9 kcal/mol
  −TΔS of binding, PR: -6.3 kcal/mol
[7]
  growth of P. falciparum: did not inhibit

## Cc1cccc(C)c1OCC(=O)N[C@@H](Cc1ccccc1)[C@@H](O)C[C@H](Cc1ccccc1)NC(=O)[C@H](C(C)C)N1CCCNC1=O [LPV, Lopinavir]
[2]
  inhibition at 16 µM: ≤ 50%

## O=C1N(Cc2ccc(CO)cc2)[C@H](Cc2ccccc2)[C@H](O)[C@@H](O)[C@@H](Cc2ccccc2)N1Cc1ccc(CO)cc1 [DMP323]
[1]
  Tm PRD25N: 67.3 °C
[8]
  ΔTm ratio ΔTm(PR)/ΔTm(PRD25N): 1-2
[2]; 24 μM inhibitor
  Inhibition of pepsin under the screening conditions: undetected
[3]
  Tm PRD29N: 69.2 °C
[4]
  Kd: 3.8 nM

## Cc1c(O)cccc1C(=O)N[C@@H](CSc1ccccc1)[C@H](O)CN1C[C@H]2CCCC[C@H]2C[C@H]1C(=O)NC(C)(C)C [NFV, Nelfinavir]
[2]
  inhibition at 16 µM: ≤ 50%

## acetyl pepstatin [Ac-PEP]
[1]
  Tm PRD25N: 58.8 °C
[3]
  Tm PRD29N: 58.3 °C
[4]
  Kd: 440 nM

## CC(C)(C)NC(=O)[C@@H]1CN(Cc2cccnc2)CCN1C[C@@H](O)C[C@@H](Cc1ccccc1)C(=O)N[C@H]1c2ccccc2C[C@H]1O [INV, Indinavir]
[2]; 16 μM inhibitor
  Inhibition of pepsin under the screening conditions: undetected; also recorded: did not inhibit

## CCC[C@@]1(CCc2ccccc2)CC(O)=C([C@H](CC)c2cccc(NS(=O)(=O)c3ccc(C(F)(F)F)cn3)c2)C(=O)O1 [TPV, Tipranavir]
[2]
  inhibition at 16 µM: ≤ 50%

## CC(C)(C)NC(=O)[C@@H]1C[C@@H]2CCCC[C@@H]2CN1C[C@@H](O)[C@H](Cc1ccccc1)NC(=O)[C@H](CC(N)=O)NC(=O)c1ccc2ccccc2n1 [SQV, Saquinavir]
[1]
  Tm PRD25N: 62.6 °C
[2]
  inhibition at 16 µM: ≤ 50%
[3]
  Tm PRD29N: 72.3 °C

## CC(C)c1nc(CN(C)C(=O)N[C@H](C(=O)N[C@@H](Cc2ccccc2)C[C@H](O)[C@H](Cc2ccccc2)NC(=O)OCc2cncs2)C(C)C)cs1 [RTV, Ritonavir]
[1]
  Tm PRD25N: 61.1 °C
[2]
  inhibition at 16 µM: 75 to 95%
[3]
  Tm PRD29N: 66.1 °C
[4]
  Binding constant (Ka), PR: (1.0 ± 0.1) × 10^10 M^−1
  ΔH of binding, PR: -4.3 kcal/mol
  −TΔS of binding, PR: -9.4 kcal/mol

## CC(C)CN(C[C@@H](O)[C@H](Cc1ccccc1)NC(=O)O[C@H]1CO[C@H]2OCC[C@H]21)S(=O)(=O)c1ccc(N)cc1 [DRV, Darunavir]
[2]
  Ki: 2140 nM
[5]
  Kd: 1540 nM
  difference in ΔG for binding to the two enzymes (PR and pepsin): 7200 kcal/mol
  binding constant (KL) from curve fitting of ITC data, pepsin: (6.5 ± 0.6) × 10^5 M
[5]; ITC
  stoichiometry of binding to pepsin: 0.90 ± 0.01
[5]; ITC, pH 3, 28 °C
  −TΔS of binding, pepsin: -2.0 kcal/mol
[3]
  Tm PRD29N: 72.7 °C
[4]
  −TΔS of binding, PR: -3.1 kcal/mol
[9]; [11]
  ΔTm PR: 22.4 °C
[9]; twofold molar excess of inhibitor, unliganded PR 65.7
  Tm PR: 88.1 °C
[10]; [11]
  ΔTm PRD25N: 3.1 °C
[10]; twofold molar excess of inhibitor, unliganded PRD25N 58.4
  Tm PRD25N: 61.5 °C
